Data as given in patent publication US10947229B2, “Dimethyl amino azetidine amides as JAK inhibitors” (THERAVANCE BIOPHARMA R&D IP, LLC, priority 2018, dated 2021).

What was measured:
Lung S9 metabolism = type: in vitro ADME, human; settings: for Compound Remaining at 60 min (%) / microsomal CLint at 1 µM: human lung S9, 1 μM compound, 1 mg/mL S9 protein; for Sulfate Appearance: human lung S9, qualitative O-sulfate metabolite peak; for microsomal CLint at 1 µM: human lung S9 fraction, pH 7.4, NADPH and PAPS, read-out: Clearance
Protocol: The time 0, 15, 30, and 60 minute samples were analyzed for parent compound by high resolution LC-MS/MS. Lung S9 fractions from human (lot 1410245) were purchased from XenoTech LLC (Lenexa, Kans.). NADPH (Sigma Aldrich, N1630) and 3-phosphoadenosine 5-phosphosulfate (PAPS) (Sigma Aldrich, A1651) were purchased from Sigma Aldrich (St. Louis, Mo.). Acetonitrile and water were obtained from VWR (Radnor, Pa.) and were of HPLC grade or better. Raloxifene and formic acid was purchased from Sigma Aldrich (St. Louis, Mo.). Lung S9 incubations were performed in a water bath at 37° C. in a 96-well polypropylene plate. […] Louis, Mo.), 3 mM magnesium chloride (Sigma Aldrich, M1028) and in the presence of 100 μM PAPS (Sigma-Aldrich, St. […] Incubation volumes consisted of 400 μL and time points were taken at 0, 15, 30, and 60 minutes by the removal of a 70 μL aliquot and dilution into 140 μL acetonitrile (0% formic acid). All samples were centrifuged at 2250 g for 10 minutes at 5° C. Supernatant […] was taken from the centrifuged samples and diluted into 100 μL HPLC water containing internal standard. The samples were run on a Dionex Ultimate 3000 Auto sampler and analyzed using a Thermo Q-Exactive High Resolution Mass Spectrometer (Thermo, Waltham, Mass.) in Full Scan mode in conjunction with an Atlantis T3 column 3 μM-2.1×50 mm (Waters Inc., 186003717). Mobile Phase A consisted of Water+0.2% formic acid and Mobile Phase B consisted of acetonitrile +0.2% formic acid. Peak integration was accomplished using Gubbs GMSU software (Gubbs Inc., Alpharetta, Ga.). For each sample, peak area ratios were calculated by dividing the analyte peak area by the internal standard peak area. For each incubation, the peak area ratios of the analytes in each t0 was set to 100%, and the peak areas ratios from the 60 minute samples were converted to percentages remaining relative to the corresponding t0. Determination of sulfate metabolite formation was made qualitatively by observation of early-eluting peak in the parent ion channel which, based on historical internal data, corresponded to the O-sulfate metabolite of each parent compound.

JAK1 = JAK1 (Homo sapiens (Human), UniProt P23458); assay: Biochemical JAK kinase assay (LanthaScreen), JAK1; settings: read-out: JAK1 pKi (converted)
Sequence of JAK1 (P23458 whole entry): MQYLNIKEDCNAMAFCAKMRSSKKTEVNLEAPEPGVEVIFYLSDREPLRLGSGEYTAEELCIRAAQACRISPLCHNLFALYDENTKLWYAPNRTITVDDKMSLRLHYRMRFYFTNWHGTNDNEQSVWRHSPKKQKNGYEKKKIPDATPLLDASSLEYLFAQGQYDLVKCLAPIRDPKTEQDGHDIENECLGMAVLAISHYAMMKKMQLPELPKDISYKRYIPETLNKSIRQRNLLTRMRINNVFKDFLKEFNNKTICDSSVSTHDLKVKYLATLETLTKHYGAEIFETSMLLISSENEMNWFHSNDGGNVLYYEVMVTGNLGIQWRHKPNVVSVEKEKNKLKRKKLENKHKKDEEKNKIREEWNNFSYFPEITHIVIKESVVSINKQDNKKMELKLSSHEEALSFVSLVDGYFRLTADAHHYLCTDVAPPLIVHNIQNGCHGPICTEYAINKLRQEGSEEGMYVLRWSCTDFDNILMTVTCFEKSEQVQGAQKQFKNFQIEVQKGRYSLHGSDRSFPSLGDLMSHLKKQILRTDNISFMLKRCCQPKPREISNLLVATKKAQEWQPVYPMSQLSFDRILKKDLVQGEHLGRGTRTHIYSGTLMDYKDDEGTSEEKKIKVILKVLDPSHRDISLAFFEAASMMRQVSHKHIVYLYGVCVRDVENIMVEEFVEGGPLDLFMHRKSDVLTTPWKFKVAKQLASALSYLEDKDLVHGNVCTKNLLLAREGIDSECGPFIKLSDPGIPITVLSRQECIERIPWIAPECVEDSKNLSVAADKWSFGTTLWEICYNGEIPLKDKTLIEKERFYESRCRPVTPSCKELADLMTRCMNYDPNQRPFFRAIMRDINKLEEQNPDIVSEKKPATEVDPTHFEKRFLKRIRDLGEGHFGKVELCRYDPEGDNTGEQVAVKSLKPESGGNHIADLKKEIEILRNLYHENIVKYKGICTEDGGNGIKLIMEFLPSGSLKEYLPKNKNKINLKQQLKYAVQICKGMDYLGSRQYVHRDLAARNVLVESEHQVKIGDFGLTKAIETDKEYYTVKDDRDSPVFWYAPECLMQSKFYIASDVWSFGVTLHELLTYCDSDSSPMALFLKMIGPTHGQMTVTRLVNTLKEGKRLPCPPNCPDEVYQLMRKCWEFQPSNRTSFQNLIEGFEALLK
Protocol: (§1) Recombinant GST-tagged JAK enzymes and a GFP-tagged STAT1 peptide substrate were obtained from Life Technologies. Serially diluted compounds were pre-incubated with each of the four JAK enzymes and the substrate in white 384-well microplates (Corning) at ambient temperature for 1 h. ATP was subsequently added to initiate the kinase reactions in 10 μL total volume, with 1% DMSO. […] Kinase reactions were allowed to proceed for 1 hour at ambient temperature before a 10 μL preparation of EDTA (10 mM final concentration) and Tb-anti-pSTAT1 ([…]) antibody (Life Technologies, 2 nM final concentration) in TR-FRET dilution buffer (Life Technologies) was added. The plates were allowed to incubate at ambient temperature for 1 h before being read on the EnVision reader (Perkin Elmer). Emission ratio signals (520 nm/495 nm) were recorded and utilized to calculate the percent inhibition values based on DMSO and background controls. For dose-response analysis, percent inhibition data were plotted vs. compound concentrations, and IC50 values were determined from a 4-parameter robust fit model with the Prism software (GraphPad Software). Results were expressed as pIC50 (negative logarithm of IC50) and subsequently converted to pKi (negative logarithm of dissociation constant, Ki) using the Cheng-Prusoff equation.

JAK2 = JAK2 (Homo sapiens (Human), UniProt O60674); assay: Biochemical JAK kinase assay (LanthaScreen), JAK2; settings: for Ki: read-out: JAK2 pKi (converted)
Sequence of JAK2 (O60674 whole entry): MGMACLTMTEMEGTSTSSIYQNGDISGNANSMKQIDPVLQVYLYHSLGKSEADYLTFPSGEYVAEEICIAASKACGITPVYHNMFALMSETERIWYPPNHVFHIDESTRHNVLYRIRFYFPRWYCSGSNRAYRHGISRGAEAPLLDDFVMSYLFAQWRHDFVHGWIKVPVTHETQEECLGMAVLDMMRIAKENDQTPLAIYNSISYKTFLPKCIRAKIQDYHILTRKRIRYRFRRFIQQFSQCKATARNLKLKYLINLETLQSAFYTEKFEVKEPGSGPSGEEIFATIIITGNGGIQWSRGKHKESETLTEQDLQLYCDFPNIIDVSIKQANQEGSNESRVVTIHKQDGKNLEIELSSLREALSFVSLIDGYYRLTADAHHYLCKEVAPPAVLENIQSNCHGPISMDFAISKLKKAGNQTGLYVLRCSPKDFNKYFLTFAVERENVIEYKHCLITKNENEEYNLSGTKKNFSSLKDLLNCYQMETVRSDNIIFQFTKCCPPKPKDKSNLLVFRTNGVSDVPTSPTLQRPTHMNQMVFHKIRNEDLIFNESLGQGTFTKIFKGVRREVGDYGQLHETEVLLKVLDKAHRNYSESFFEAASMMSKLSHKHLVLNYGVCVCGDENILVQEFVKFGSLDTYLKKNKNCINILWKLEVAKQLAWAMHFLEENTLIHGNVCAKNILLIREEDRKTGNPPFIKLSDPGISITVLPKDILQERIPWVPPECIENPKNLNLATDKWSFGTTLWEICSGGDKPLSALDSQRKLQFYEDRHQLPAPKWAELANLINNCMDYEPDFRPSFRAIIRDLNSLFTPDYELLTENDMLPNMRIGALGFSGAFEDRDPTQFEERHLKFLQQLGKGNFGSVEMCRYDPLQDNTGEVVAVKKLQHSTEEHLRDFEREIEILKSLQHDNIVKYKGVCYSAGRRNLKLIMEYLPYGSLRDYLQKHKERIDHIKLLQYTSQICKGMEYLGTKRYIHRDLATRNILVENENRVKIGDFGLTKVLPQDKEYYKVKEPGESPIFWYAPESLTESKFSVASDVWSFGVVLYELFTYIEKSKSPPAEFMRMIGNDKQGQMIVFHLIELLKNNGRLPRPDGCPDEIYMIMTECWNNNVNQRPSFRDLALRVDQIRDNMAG
Protocol: as §1, with “equation. Test compounds having a lower Ki value or higher pKi value in the four JAK assays show greater inhibition of JAK activity.” for “equation.”

[1] = system: IL-2 stimulated pSTAT5 in Tall-1 T cells; assay: Inhibition of IL-2 stimulated pSTAT5 in Tall-1 T cells; type: cell-based; settings: IL-2 stimulated pSTAT5, Tall-1 human T cell line; read-out: Tall-1 pIC50 (converted)
Protocol: The potency of test compounds for inhibition of interleukin-2 (IL-2) stimulated STAT5 phosphorylation was measured in the Tall-1 human T cell line (DSMZ) using AlphaLisa. Because IL-2 signals through JAK1/3, this assay provides a measure of JAK1/3 cellular potency.
Phosphorylated STAT5 was measured via the AlphaLISA SureFire Ultra pSTAT5 (Tyr694/699) kit (PerkinElmer).
Human T cells from the Tall-1 cell line were cultured in a 37° C., 5% CO2 humidified incubator in RPMI (Life Technologies) supplemented with 15% Heat Inactivated Fetal Bovine Serum (FBS, Life Technologies), 2 mM Glutamax (Life Technologies), 25 mM HEPES (Life Technologies) and 1× Pen/Strep (Life Technologies). Compounds were serially diluted in DMSO and dispensed acoustically to empty wells. Assay media (phenol red-free DMEM (Life Technologies) supplemented with 10% FBS (ATCC)) was dispensed (4 μL/well) and plates shaken at 900 rpm for 10 mins. Cells were seeded at 45,000 cells/well in assay media (4 μL/well), and incubated at 37° C., 5% CO2 for 1 hour, followed by the addition of IL-2 (R&D Systems; final concentration 300 ng/mL) in pre-warmed assay media (4 μL) for 30 minutes. After cytokine stimulation, cells were lysed with 6 ul of 3× AlphaLisa Lysis Buffer (PerkinElmer) containing 1× PhosStop and Complete tablets (Roche). The lysate was shaken at 900 rpm for 10 minutes at room temperature (RT). Phosphorylated STAT5 was measured via the pSTAT5 AlphaLisa kit (PerkinElmer). Freshly prepared acceptor bead mixture was dispensed onto lysate (5 μL) under green filtered <100 lux light. Plates were shaken at 900 rpm for 2 mins, briefly spun down, and incubated for 2 hrs at RT in the dark. Donor beads were dispensed (5 μL) under green filtered <100 lux light. Plates were shaken at 900 rpm for 2 minutes, briefly spun down, and incubated overnight at RT in the dark. Luminescence was measured with excitation at 689 nm and emission at 570 nm using an EnVision plate reader (PerkinElmer) under green filtered <100 lux light.
To determine the inhibitory potency of test compounds in response to IL-2, the average emission intensity of beads bound to pSTAT5 was measured in a human T cell line. IC50 values were determined from analysis of the inhibition curves of signal intensity versus compound concentration. Data are expressed as pIC50 (negative decadic logarithm IC50) values (mean±standard deviation).

Tyk2 = Tyk2 (Homo sapiens (Human), UniProt P29597); assay: Biochemical JAK kinase assay (LanthaScreen), Tyk2
Sequence of Tyk2 (P29597 whole entry): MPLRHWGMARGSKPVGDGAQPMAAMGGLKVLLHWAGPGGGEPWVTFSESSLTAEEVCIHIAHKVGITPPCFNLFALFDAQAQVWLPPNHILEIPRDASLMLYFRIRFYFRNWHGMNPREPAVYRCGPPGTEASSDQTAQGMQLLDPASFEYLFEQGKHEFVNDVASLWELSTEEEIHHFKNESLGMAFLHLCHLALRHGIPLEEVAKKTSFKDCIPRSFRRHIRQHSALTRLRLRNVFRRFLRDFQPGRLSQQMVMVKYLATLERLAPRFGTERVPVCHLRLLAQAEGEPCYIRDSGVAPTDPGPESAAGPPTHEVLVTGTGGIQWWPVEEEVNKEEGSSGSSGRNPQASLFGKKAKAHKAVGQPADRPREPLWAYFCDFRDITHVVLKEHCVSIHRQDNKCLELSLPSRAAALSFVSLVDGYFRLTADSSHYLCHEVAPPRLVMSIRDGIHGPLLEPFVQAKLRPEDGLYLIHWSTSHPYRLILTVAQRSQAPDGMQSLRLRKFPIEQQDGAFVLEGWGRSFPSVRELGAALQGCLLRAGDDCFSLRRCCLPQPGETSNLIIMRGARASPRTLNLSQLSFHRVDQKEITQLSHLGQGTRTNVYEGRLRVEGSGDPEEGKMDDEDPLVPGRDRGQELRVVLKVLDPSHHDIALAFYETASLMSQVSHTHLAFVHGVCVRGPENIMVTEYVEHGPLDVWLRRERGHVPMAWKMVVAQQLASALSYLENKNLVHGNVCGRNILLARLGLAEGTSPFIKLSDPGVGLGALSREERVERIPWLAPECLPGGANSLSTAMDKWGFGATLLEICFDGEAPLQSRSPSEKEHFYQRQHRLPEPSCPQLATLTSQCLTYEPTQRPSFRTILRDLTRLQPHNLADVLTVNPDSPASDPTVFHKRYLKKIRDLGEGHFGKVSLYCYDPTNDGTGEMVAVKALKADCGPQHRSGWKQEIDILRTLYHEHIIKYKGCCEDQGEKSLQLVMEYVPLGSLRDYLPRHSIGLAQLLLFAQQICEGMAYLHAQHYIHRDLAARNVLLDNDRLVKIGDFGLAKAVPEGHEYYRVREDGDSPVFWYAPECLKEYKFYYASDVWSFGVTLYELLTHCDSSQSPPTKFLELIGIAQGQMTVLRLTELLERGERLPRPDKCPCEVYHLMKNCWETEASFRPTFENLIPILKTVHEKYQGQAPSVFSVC
Protocol: as §1

Q: Which “Compound Remaining at 60 min (%)” value (Lung S9 metabolism) does the source give for `CCc1cc(O)ccc1-c1ccc2c(-c3nc4c([nH]3)CN(CC)[C@H](C(=O)N3CC(N(C)C)C3)C4)n[nH]c2c1` [Compound 2, (S)-(3-(dimethylamino)azetidin-1-yl)(5-ethyl-2-(6-(2-ethyl-4-hydroxyphenyl)-1H-indazol-3-yl)-4,5,6,7-tetrahydro-3H-imidazo[4,5-c]pyridin-6-yl)methanone] here?
A: 98%

Q: And the “Sulfate Appearance” value (Lung S9 metabolism)?
A: Yes

Q: What about the microsomal CLint at 1 µM (Lung S9 metabolism) of the same molecule?
A: 0.6 µL/min/mg

Q: For `CCc1cc(O)ccc1-c1ccc2c(-c3nc4c([nH]3)CN(CC)[C@H](C(=O)N3CC(C)(N(C)C)C3)C4)n[nH]c2c1` [Compound 3, (S)-(3-(dimethylamino)-3-methylazetidin-1-yl)(5-ethyl-2-(6-(2-ethyl-4-hydroxyphenyl)-1H-indazol-3-yl)-4,5,6,7-tetrahydro-3H-imidazo[4,5-c]pyridin-6-yl)methanone], which “Compound Remaining at 60 min (%)” value (Lung S9 metabolism) is on record?
A: 97%

Q: What about the “Sulfate Appearance” value (Lung S9 metabolism) of the same molecule?
A: Yes

Q: And the microsomal CLint at 1 µM (Lung S9 metabolism)?
A: 0.8 µL/min/mg

Q: Which results are given for `CCc1cc(O)ccc1-c1ccc2c(-c3nc4c([nH]3)CN(C(C)C)[C@H](C(=O)N3CC(C)(N(C)C)C3)C4)n[nH]c2c1` [Compound 4, (S)-(3-(dimethylamino)-3-methylazetidin-1-yl)(2-(6-(2-ethyl-4-hydroxyphenyl)-1H-indazol-3-yl)-5-isopropyl-4,5,6,7-tetrahydro-3H-imidazo[4,5-c]pyridin-6-yl)methanone]?
A: Compound Remaining at 60 min (%) (Lung S9 metabolism): 100%; Sulfate Appearance (Lung S9 metabolism): Yes

Q: For `CCCN1Cc2[nH]c(-c3n[nH]c4cc(-c5ccc(O)cc5CC)ccc34)nc2C[C@H]1C(=O)N1CC(N(C)C)C1` [Compound 5, (S)-(3-(dimethylamino)azetidin-1-yl)(2-(6-(2-ethyl-4-hydroxyphenyl)-1H-indazol-3-yl)-5-propyl-4,5,6,7-tetrahydro-3H-imidazo[4,5-c]pyridin-6-yl)methanone], which “Compound Remaining at 60 min (%)” value (Lung S9 metabolism) is on record?
A: 96%

Q: What about the “Sulfate Appearance” value (Lung S9 metabolism) of the same molecule?
A: Yes

Q: What about the microsomal CLint at 1 µM (Lung S9 metabolism) of the same molecule?
A: 1.6 µL/min/mg

Q: What about the Ki (JAK1) of the same molecule?
A: 0.0316 nM

Q: What does the source list for `CCCN1Cc2[nH]c(-c3n[nH]c4cc(-c5ccc(O)cc5CC)ccc34)nc2C[C@H]1C(=O)N1CC(C)(N(C)C)C1` [Compound 6, (S)-(3-(dimethylamino)-3-methylazetidin-1-yl)(2-(6-(2-ethyl-4-hydroxyphenyl)-1H-indazol-3-yl)-5-propyl-4,5,6,7-tetrahydro-3H-imidazo[4,5-c]pyridin-6-yl)methanone]?
A: Compound Remaining at 60 min (%) (Lung S9 metabolism): 90%; Sulfate Appearance (Lung S9 metabolism): Yes; microsomal CLint at 1 µM (Lung S9 metabolism): 1.8 µL/min/mg; Ki (JAK2): 0.0316 nM

Q: What does the source list for `CCc1cc(O)c(F)cc1-c1ccc2c(-c3nc4c([nH]3)CN(C(C)C)[C@H](C(=O)N3CC(N(C)C)C3)C4)n[nH]c2c1` [Compound C-1, (S)-(3-(dimethylamino)azetidin-1-yl)(2-(6-(2-ethyl-5-fluoro-4-hydroxyphenyl)-1H-indazol-3-yl)-5-isopropyl-4,5,6,7-tetrahydro-3H-imidazo[4,5-c]pyridin-6-yl)methanone]?
A: Compound Remaining at 60 min (%) (Lung S9 metabolism): 6%; Sulfate Appearance (Lung S9 metabolism): Yes; microsomal CLint at 1 µM (Lung S9 metabolism): 49 µL/min/mg

Q: Which IC50 [1] does the source give for `CCc1cc(O)c(F)cc1-c1ccc2c(-c3nc4c([nH]3)CN(CC)[C@H](C(=O)N3CC(C)(N(C)C)C3)C4)n[nH]c2c1` [Compound C-3, (S)-(3-(dimethylamino)-3-methylazetidin-1-yl)(5-ethyl-2-(6-(2-ethyl-5-fluoro-4-hydroxyphenyl)-1H-indazol-3-yl)-4,5,6,7-tetrahydro-3H-imidazo[4,5-c]pyridin-6-yl)methanone] here?
A: 2 nM

Q: What about the “Compound Remaining at 60 min (%)” value (Lung S9 metabolism) of the same molecule?
A: 5%

Q: And the “Sulfate Appearance” value (Lung S9 metabolism)?
A: Yes

Q: What about the microsomal CLint at 1 µM (Lung S9 metabolism) of the same molecule?
A: 50.6 µL/min/mg

Q: What about the “JAK2 pKi” value (JAK2) of the same molecule?
A: 10.9

Q: And the “Tyk2 pKi” value (Tyk2)?
A: 9.4

Q: What does the source list for `CCc1cc(O)c(F)cc1-c1ccc2c(-c3nc4c([nH]3)CN(C(C)C)[C@H](C(=O)N3CC(C)(N(C)C)C3)C4)n[nH]c2c1` [Compound C-4, (S)-(3-(dimethylamino)-3-methylazetidin-1-yl)(2-(6-(2-ethyl-5-fluoro-4-hydroxyphenyl)-1H-indazol-3-yl)-5-isopropyl-4,5,6,7-tetrahydro-3H-imidazo[4,5-c]pyridin-6-yl)methanone]?
A: IC50 [1]: 2.51 nM; Compound Remaining at 60 min (%) (Lung S9 metabolism): 4%; Sulfate Appearance (Lung S9 metabolism): Yes; microsomal CLint at 1 µM (Lung S9 metabolism): 53.2 µL/min/mg; Ki (JAK1): 0.0794 nM; Ki (JAK2): 0.0126 nM

Q: For `CCCN1Cc2[nH]c(-c3n[nH]c4cc(-c5cc(F)c(O)cc5CC)ccc34)nc2C[C@H]1C(=O)N1CC(C)(N(C)C)C1` [Compound C-6, (S)-(3-(dimethylamino)-3-methylazetidin-1-yl)(2-(6-(2-ethyl-5-fluoro-4-hydroxyphenyl)-1H-indazol-3-yl)-5-propyl-4,5,6,7-tetrahydro-3H-imidazo[4,5-c]pyridin-6-yl)methanone], which IC50 [1] is on record?
A: 2.51 nM

Q: And the “Compound Remaining at 60 min (%)” value (Lung S9 metabolism)?
A: 4%

Q: And the “Sulfate Appearance” value (Lung S9 metabolism)?
A: Yes

Q: What about the microsomal CLint at 1 µM (Lung S9 metabolism) of the same molecule?
A: 53.5 µL/min/mg

Q: And the “JAK2 pKi” value (JAK2)?
A: 10.7
